Experimental data: patent publication US20080146555A1, “Uses of Kinase Inhibitors and Compositions Thereof” (GPC Biotech, Inc, priority 2004, published 2008)
Structures can show the parent of a compound that is named as a salt. Where two headings read alike, the source gives them in different places.

How the values were obtained:
[1] = tested on: adriamycin resistant cell line (ADR-res); experiment: NCI panel, adriamycin resistant cell line, SRB assay; assay type: cell-based; conditions: Homo sapiens, 48 h
Description: The evaluation of compounds at the National Cancer Institute in their panel of 60 cell lines provides a wealth of information regarding efficacy in a wide range of tumor types and genetic backgrounds. Included within this panel are cell lines derived from leukemia, melanoma and cancers of the lung, colon, brain, ovary, breast, prostate and kidney. Use of this panel provides a measure of the efficacy of compounds in cells with alterations in many genes that are associated with neoplastic transformation including p53 and Her2/Neu as well as those involved in metabolism and those which confer multi-drug resistance. The data generated in these cell lines with the protocol described below can be used to evaluate the activity of compounds.
Cells were grown in RPMI-1640 10% FCS and plated in 96 well micro-titer plates at densities ranging from 5,000 to 40,000 cells/well. The plates were incubated for 24 hours at 37° C., 5% CO2 for 24 hours. Media containing twice the desired final concentration of the compound (5 doses spanning 4 logs) was prepared and 100 μl was added to each well containing 100 μl media plus cells to yield the desired final concentration. The plates were then incubated for an additional 48 hours.
The effect of the compound on cellular viability was determined with the Sulforhodamine B (SRB) assay, which measures total protein. Cells were fixed with cold TCA to a final concentration of 10% and incubated at 4° C. for 60 minutes. The supernatant was discarded and the plates were washed five times with water and air-dried. SRB solution at […] in 1% acetic acid was added to each well and the plates were incubated for 10 minutes at room temperature. The plates were washed five times with 1% acetic acid and air-dried. The bound stain was solubilized with 10 mM trizma base and the absorbance was read on a plate reader at […].

[2] = tested on: CEM; experiment: SRB cytotoxicity, CEM parental cells; assay type: cell-based; conditions: Homo sapiens, CCRF-CEM, 72 h
Description: (§1) In these experiments, the P-glycoprotein expressing NCI-Adr resistant subline (Vickers et al., 1989. Mol Endocrinology 3 (1):157-164) was used. […] Briefly, cells were plated in 96 well dishes 24 hours prior to compound addition. Where noted, they were exposed to verapamil for 4 hours prior to compound addition and then throughout the treatment period (72 hours). The assay was terminated with the addition of cold TCA to a final concentration of 10% and the plates were incubated for one hour at 4° C. The plates were then washed 5 times with water and 100 μl of a Sulforhodamine B solution (4%) was added to each well. The plate was then incubated for 10 minutes at room temperature before removal of unbound dye by washing with 1% acetic acid.
(§2) The Camptothecin resistant CEM/C2 cells were derived from the T lymphoblastoid leukemia cell line CCRF/CEM by selection in the presence of Camptothecin in vitro (Kapoor et al., 1995. Oncology Research 7; 83-95, ATCC).
(§3) The effects of A37 and B16 were evaluated in the CCRF/CEM and CEM/C2 cells using the same SRB assay as described above, with 72-hour drug exposure.

[3] = molecular target: Cdk7 (Homo sapiens, UniProt P50613); experiment: Cdk7 inhibition; assay type: biochemical
Description: Further inhibition results for subject compounds of the invention against other CDKs and further kinases are shown in Table 5, Table II and described in Example 6.
Table 3, Table 4, Table 5 and Table II show the results obtained for inhibition of a broad range of such kinases for subject compounds of the invention.

[4] = tested on: CEM/C2; experiment: SRB cytotoxicity, camptothecin resistant cells; assay type: cell-based, human; conditions: for IC50: Homo sapiens, CEM/C2, 72 h, SRB
Description: as §1, §2, §3

[5] = molecular target: T1, MKK6 (Homo sapiens, UniProt P52564); experiment: MKK6 kinase assay; assay type: biochemical
T1 construct: purchased Upstate 14-303
T1 sequence (P52564 1-334): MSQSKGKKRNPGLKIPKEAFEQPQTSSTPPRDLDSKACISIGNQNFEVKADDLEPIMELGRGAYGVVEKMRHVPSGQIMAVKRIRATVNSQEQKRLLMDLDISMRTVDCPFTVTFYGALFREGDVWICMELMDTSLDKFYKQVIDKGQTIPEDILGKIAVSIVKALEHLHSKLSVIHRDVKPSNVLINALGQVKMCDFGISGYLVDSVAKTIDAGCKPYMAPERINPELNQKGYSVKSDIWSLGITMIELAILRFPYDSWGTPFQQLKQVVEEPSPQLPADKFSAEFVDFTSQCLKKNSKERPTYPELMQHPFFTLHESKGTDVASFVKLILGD
Description: • 1. Reaction Buffer (RB): 50 mM Tris-HCl, pH 7.5, 0.1 mM EGTA, 0.1% 2-mercaptoethanol, 0.1 mM sodium orthovanadate, 10 mM MgAc. • 2. Magnesium/ATP Cocktail (Catalog #20-113): 500 μM cold ATP and 75 mM magnesium chloride in 20 mM MOPS, pH 7.2, 25 mM β-glycerol phosphate, 5 mM EGTA, 1 mM sodium orthovanadate, 1 mM dithiothreitol. • 3. MKK6/SKK3, active: Dilute to 10 ng/μl with Reaction Buffer containing 0.03% Brij-35. Use 5 μl (50 ng) per assay point. • 4. p38a/SAPK2a, unactive (Catalog #14-252): Use 4 μl per assay point. • 5. Myelin Basic Protein (MBP, Catalog #13-104): Prepare a 2 mg/ml stock solution in 20 mM MOPS, pH 7.2, 25 mM β-glycerol phosphate, 5 mM EGTA, 1 mM sodium orthovanadate, 1 mM dithiothreitol. Use 10 μl per assay point. • 6. [γ-^32P]ATP: Stock 1 mCi/100 μl (3000 Ci/mmol, obtained from Perkin Elmer, Catalog #BLU002A). Make 10 μl aliquots (100 μCi/vial). Before starting the assay, dilute the Magnesium/ATP Cocktail 1:1 with sterile, distilled water. Then dilute an aliquot of [γ-^32P]ATP to 1 μCi/μl with 90 μl of the diluted Magnesium/ATP Cocktail. […]
• 1. On ice, add 1 μl RB to a microcentrifuge tube. • 2. Add 4 μl (2 μg) p38α/SAPK2a, unactive. • 3. Add 10 μl of Magnesium/ATP Cocktail. • 4. Add 5 μl (50 ng) MKK6/SKK3, active. • 5. Incubate for 30 minutes shaking at 30° C. • 6. Place on ice and proceed to Stage Two.
• 1. Remove 10 μL of the mixture prepared in Stage One and add to a new microcentrifuge tube. • 2. Add 20 μl of RB. • 3. Add 10 μl of MBP. • 4. Add 10 μl of the diluted [γ-^32P] ATP mixture (1 μCi/μl). • 5. Incubate for 15 minutes shaking at 30° C. • 6. Spot 40 μl on a 2 cm×2 cm P81 paper. • 7. Wash assay squares three times with 0.75% phosphoric acid for 5 minutes per wash. • 8. Wash assay squares once with acetone for five minutes. • 9. Transfer the assay squares to a scintillation vial and add 5 ml scintillation cocktail. • 10. Read in scintillation counter. Compare cpm of enzyme samples to cpm of control samples that contain no active enzyme (background control).

[6] = kinase panel, 10 μM ATP, read-out: MAPK 6 / MKK6 IC50
[7] = read-out: MAP2K6 Inhibition (IC50)

Chain of Cdk7 (P50613 whole entry, species assumed): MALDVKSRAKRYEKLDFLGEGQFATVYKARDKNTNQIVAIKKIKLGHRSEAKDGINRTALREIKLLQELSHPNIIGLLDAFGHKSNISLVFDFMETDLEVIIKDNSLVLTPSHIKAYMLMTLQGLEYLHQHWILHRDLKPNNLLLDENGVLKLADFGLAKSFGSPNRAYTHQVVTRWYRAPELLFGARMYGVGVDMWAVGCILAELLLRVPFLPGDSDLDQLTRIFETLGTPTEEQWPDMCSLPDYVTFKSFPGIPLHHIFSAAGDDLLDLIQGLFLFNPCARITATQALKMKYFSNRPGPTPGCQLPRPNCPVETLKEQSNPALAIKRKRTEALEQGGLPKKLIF
Chain of Cdk7 (P51946 whole entry partner, species assumed): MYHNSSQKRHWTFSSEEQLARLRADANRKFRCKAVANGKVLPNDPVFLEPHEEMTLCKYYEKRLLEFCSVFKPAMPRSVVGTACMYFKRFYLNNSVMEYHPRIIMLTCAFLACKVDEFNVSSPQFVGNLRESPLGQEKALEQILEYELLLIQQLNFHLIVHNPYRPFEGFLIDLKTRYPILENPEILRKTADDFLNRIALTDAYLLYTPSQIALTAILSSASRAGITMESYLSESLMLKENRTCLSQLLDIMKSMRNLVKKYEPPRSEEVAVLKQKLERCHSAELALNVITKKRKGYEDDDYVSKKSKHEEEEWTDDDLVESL
Chain of Cdk7 (P51948 whole entry partner, species assumed): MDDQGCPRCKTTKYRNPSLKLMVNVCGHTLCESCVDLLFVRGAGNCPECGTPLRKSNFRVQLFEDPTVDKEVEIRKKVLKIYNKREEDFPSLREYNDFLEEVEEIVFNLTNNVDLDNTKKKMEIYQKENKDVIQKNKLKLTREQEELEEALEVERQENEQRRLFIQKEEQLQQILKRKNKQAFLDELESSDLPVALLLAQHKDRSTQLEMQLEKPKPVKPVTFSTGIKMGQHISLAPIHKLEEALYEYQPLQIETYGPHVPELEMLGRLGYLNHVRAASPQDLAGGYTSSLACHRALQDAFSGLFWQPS

Q: Which IC50 [1] does the source give for `CC(C)N1CCN(C(=O)COc2ccc(-c3n[nH]c4c3C(=O)c3c(NC(=O)NN5CCOCC5)cccc3-4)cc2)CC1` [Compound A37] here?
A: Its IC50 is < 100000 nM.

Q: And the IC50 [2]?
A: The IC50 was 21.3 nM.

Q: What about the IC50 [3] of the same compound?
A: Its IC50 is < 500 nM.

Q: And the “RR (relative resistance) CEM/C2 vs CEM” value [4]?
A: Its value is 0.72.

Q: And the IC50 [4]?
A: Its IC50 is 15.3 nM.

Q: And the IC50 [5, 6]?
A: Its IC50 is 10 to 100 nM.

Q: What about the IC50 [5, 7] of the same compound?
A: The IC50 was < 500 nM.

Q: What does the source list for `COCCN1CCN(Cc2ccc(-c3n[nH]c4c3C(=O)c3c(NC(=O)NN5CCOCC5)cccc3-4)cc2)CC1` [Compound B16, N-[3-(4-{[4-(2-methoxyethyl)piperazinyl]methyl}phenyl)-4-oxoindeno[2,3-d]pyrazol-5-yl](morpholin-4-ylamino)carboxamide dihydrochloride]?
A: IC50 [1]: < 10000 nM; IC50 [2]: 25 nM; IC50 [3]: < 50 nM; RR (relative resistance) CEM/C2 vs CEM [4]: 1.01; IC50 [4]: 25.3 nM; IC50 [5, 6]: < 100 nM; IC50 [5, 7]: < 100 nM
